One experiment has as its system PC12 cells. In words: Veratridine-evoked [^3H]noradrenaline release from PC12 cells. As to conditions: for effect on veratridine-evoked [^3H]noradrenaline release (concentration-response): in the absence of rauwolscine / interacting drugs; for activity at 100 µM: PC-12, read-out: Veratridine (1 mM)-induced [^3H]noradrenaline release (% of controls without drug); for effect on veratridine-induced [^3H]noradrenaline release (concentration-response): in the presence of 3 μM rauwolscine; for effect on veratridine-evoked [^3H]noradrenaline release, given alone: CB1 antagonist given alone; for effect on evoked tritium overflow: 3 μM rauwolscine. Format: cell-based, rat. As for the experimental part: PC12 cells were cultured in suspension culture as described by Harder and Bönisch (1984). […] For the experiments on intact cells, PC12 cells were cultured in a humidified CO2-incubator (at 37° C. and in the presence of 9% CO2) on dishes (60 mm, Nunc) coated with polyornithine 0.1 g/l (in 0.15 M boric acid, and 67 mM NaOH, adjusted with HCl to pH 8.4). Each culture dish contained about 10^7 cells corresponding to about 1 mg cell protein.
To load the cells with labelled noradrenaline, 10 nM [^3H]noradrenaline was added to the culture medium (3 ml/dish) and the cells were incubated for 3 h in a CO2-incubator (37° C.). To minimize oxidation of the catecholamine, L(+)-ascorbic acid (1 mM) was present in all solutions. The cells were then washed twice with culture medium and incubated for 60 min with [^3H]noradrenaline-free culture medium (with a change of the medium after 30 min). Subsequently the cell dishes were transferred to a water bath of 37° C. (onset of the experiment) and the cells were then incubated until the end of the experiment with prewarmed (37° C.) [^3H]noradrenaline-free HEPES-buffered salt solution (composition in mM unless stated otherwise: NaCl 125, KCl 15, KH2PO4 1.2, CaCl2 2.6, MgSO4 1.2, HEPES-NaOH (pH 7.4) 25, D(+)-glucose 5.6, L(+)-ascorbic acid 1.0) with a change of the medium every 5 min (total incubation time in the HEPES buffer: 85 min). To minimize loss of cells during washing und to inhibit the neuronal noradrenaline transport system the solution contained 1 g/l bovine serum albumin and 1 μM desipramine, respectively (Friedrich and Bönisch, 1986). The agonist and/or antagonist under study was added to the HEPES buffer at the onset of the exposure to this buffer. Sixty min after onset of incubation with the buffer 1 mM veratridine was added for 5 min. In a few experiments, the HEPES-buffered salt solution contained 4.8 instead of 15 mM KCl and stimulation was carried out either by 1 mM veratridine or by increasing the KCl concentration to 15 mM (time schedule identical to the standard procedure). In one series of experiments, culture medium was changed daily (instead of changing it every 3 days as standard condition) and 100 μM clonidine was added to the medium for 72 h. The cells were then washed twice with clonidine-free culture medium (with a change of the medium after 30 min). Subsequently the cell dishes were transferred to a water bath of 37° C. (onset of the experiment) and the cells were then incubated until the end of the experiment with prewarmed (37° C.) [^3H]noradrenaline-free HEPES-buffered salt solution and veratridine was administered 2 h after the end of exposure to clonidine. Basal efflux of tritium was determined in the 5-min period before and in that 20 min after onset of stimulation. Veratridine-evoked tritium overflow was determined in the four 5-min periods after the onset of veratridine application. At the end of the experiment, the cells were solubilized by 0.1% v/v TritonX-100 (in 5 mM Tris-HCl, pH 7.4). The radioactivity of the solubilized cells und of the wash-out samples was determined by liquid scintillation counting.

Another experiment has as its target T1, h(edg2) receptor (Homo sapiens, UniProt Q92633).
T1 construct: expressed in transfected cells; host or cells: RH7777 cells (rat hepatoma cells), membranes
In words: Agonist-induced [^35S]GTPγS binding to membranes from RH7777 cells stably transfected with h(edg2) receptors. The settings on record: for agonist character at the edg2-receptor: increase to the same extent as for the endogenous ligand LPA; for effect on [^35S]GTPγS-binding: nanomolar concentrations, 10 μM rauwolscine, 0.1 μM GDP. It counts as biochemical. How it is done:
RH7777 cells (rat hepatoma cells) stably transfected with cDNA encoding the h(edg2) receptor and PC12 cells were homogenized in ice-cold 20 mM HEPES buffer containing […] EDTA (pH 7.4 at RT) with an ultraturrax homgenizer and centrifuged at 48,000 g, 4° C. for 15 min. The pellet was resuspended in ice-cold 20 mM HEPES buffer containing 0.1 mM EDTA (pH 7.4 at RT) and recentrifuged at 48,000 g, 4° C. for 15 min. The final pellet was resuspended in 20 mM HEPES buffer (pH 7.4 at RT).
50 μg Membranes were incubated in 0.5 ml of GTP-binding buffer containing GDP 0.1 μM, rauwolscine 10 μM (in the experiments with membranes from RH7777 cells), [^35S]GTPγs 0.05 nM and indicated test compound (LPA, clonidine or moxonidine diluted in assay buffer containing 1% fatty acid free BSA) for 45 min at 30° C. The incubation was terminated by filtering over GF/B filters with a cell harvester, and the filters were washed once with 5 ml of ice-cold assay buffer. Radioactivity was counted by liquid scintillation spectrometry at an efficiency of >95%.

[1] abbreviates: drug 100 μM, 3 μM rauwolscine present.

Counter-ions that a name gives are not always drawn.

T1 sequence (Q92633 whole entry): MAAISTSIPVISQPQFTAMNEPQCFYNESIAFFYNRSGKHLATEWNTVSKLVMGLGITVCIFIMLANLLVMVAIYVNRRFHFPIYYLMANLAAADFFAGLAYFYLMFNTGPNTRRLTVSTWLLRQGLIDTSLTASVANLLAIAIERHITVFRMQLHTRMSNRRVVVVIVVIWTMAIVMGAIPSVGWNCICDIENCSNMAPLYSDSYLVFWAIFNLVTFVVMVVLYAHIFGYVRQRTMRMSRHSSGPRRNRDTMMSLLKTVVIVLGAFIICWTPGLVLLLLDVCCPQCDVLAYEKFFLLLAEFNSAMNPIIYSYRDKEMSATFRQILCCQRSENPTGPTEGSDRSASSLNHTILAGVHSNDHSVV

Turning to `CCCCCCCC/C=C\CCCCCCCC(=O)OC[C@@H](O)COP(=O)(O)O` [1-oleoyl-LPA, 1-oleoyl-lysophosphatidic acid], the “effect on evoked [^3H]noradrenaline release” value in the experiment on PC12 cells (10 μM 1-oleoyl-LPA, cells pretreated with 100 μM clonidine for 72 h) is “did not inhibit but tended to increase”. For the same compound, the “effect on veratridine-evoked [^3H]noradrenaline release (concentration-response)” value with PC12 cells is “concentration-dependently inhibited”.
As for `CCCCCCCCCCCCCCCC(=O)OCC(O)COP(=O)(O)O` (stereo not shown) [1-palmitoyl-LPA], the “effect on evoked [^3H]noradrenaline release” value in the experiment on PC12 cells (10 μM 1-palmitoyl-LPA) was “did not alter”; with PC12 cells (up to 1 μM 1-palmitoyl-LPA) it was “concentration-dependently increased”.
Regarding `N=C(N)NN1Cc2c(Cl)ccc(Cl)c2C1` [Aganodine, aganodine], in the experiment on PC12 cells (setting [1]), the “effect on veratridine-induced [^3H]noradrenaline release at 100 μM (in words)” value (from here on “effect on veratridine-induced … (in words)”) is “inhibited”. In the experiment on PC12 cells (drug 100 μM, 15 mM KCl, 1 μM desipramine and 3 μM rauwolscine throughout, means ± SEM of 6-11 experiments), the “Veratridine (1 mM)-induced [^3H]noradrenaline release (% of controls without drug)” value came to 32.3 ± 5.7%.
`N=C(N)NCCCCN.O=S(=O)(O)O` [Agmatine, agmatine sulfate]: the activity at 100 µM with PC12 cells (Rattus norvegicus) amounted to 76.4 ± 9.5%. For the same compound, in the experiment with PC12 cells (setting [1]), the “effect on veratridine-induced … (in words)” value is on record as “inhibited”. In the experiment on PC12 cells, the “effect on veratridine-induced [^3H]noradrenaline release (concentration-response)” value is “concentration-dependently inhibited”.
Consider `CCCCC/C=C\C/C=C\C/C=C\C/C=C\CCCC(=O)NCCO` [Anandamide, anandamide], for which the figures for the “effect on veratridine-evoked [^3H]noradrenaline release” value with PC12 cells (1 μM anandamide) and in the experiment with PC12 cells (100 μM anandamide) were “did not affect” and “enhanced”, respectively.
Turning to `Cl.Clc1cccc2c1CN(NC1=NCCN1)C2` [BDF 6143, 4-chloro-2-(2-imidazolin-2-ylamino)-isoindoline hydrochloride], in the experiment on PC12 cells (Rattus norvegicus), the activity at 100 µM stood at 74.7 ± 11.1%. The “effect on veratridine-induced … (in words)” value in the experiment with PC12 cells (setting [1]) is given as “inhibited”. Besides, the “effect on veratridine-induced [^3H]noradrenaline release (concentration-response)” value in the experiment with PC12 cells is reported as “concentration-dependently inhibited”.
As for `c1ccc(C2CC2)c(OCC2=NCCN2)c1` [Cirazoline, cirazoline hydrochloride], the activity at 100 µM in the experiment with PC12 cells (Rattus norvegicus) worked out at 17.4 ± 7.5%. For the same compound, the “effect on veratridine-induced … (in words)” value in the experiment with PC12 cells (setting [1]) is on record as “inhibited”.
For the compound `Clc1cccc(Cl)c1N=C1NCCN1` [Clonidine, clonidine hydrochloride], the “effect on [^3H]noradrenaline release” value in the experiment on PC12 cells (10 μM clonidine in the presence of 10 μM SR141716A) is given as “acted facilitatory”. Also, the “evoked [^3H]noradrenaline release (% of veratridine-evoked release in the respective control experiments)” value in the experiment with PC12 cells (100 μM clonidine, cells pretreated with 100 μM clonidine for 72 h, n=6) was 171±24%. The activity at 100 µM in the experiment on PC12 cells (Rattus norvegicus) turned out to be 25.6 ± 12.2%. The “effect on veratridine-induced … (in words)” value with PC12 cells (setting [1]) was “inhibited”. Moreover, in the experiment with PC12 cells, the “effect on veratridine-evoked [^3H]noradrenaline release (concentration-response)” value was “concentration-dependently inhibited” and the “effect on veratridine-induced [^3H]noradrenaline release (concentration-response)” value is “concentration-dependently inhibited”. Moreover, on h(edg2) receptor, the “agonist character at the edg2-receptor” value is “full agonists” and the “effect on [^35S]GTPγS-binding” value is recorded as “provoke an increase”.
Take `Cc1ccccc1NC(=N)Nc1ccccc1C` [DTG, 1,3-di(2-tolyl)guanidine]: the activity at 100 µM in the experiment with PC12 cells (Rattus norvegicus) was determined as 63.3 ± 7%. Further, in the experiment with PC12 cells (setting [1]), the “effect on veratridine-induced … (in words)” value was “inhibited”.
On to `COc1ccc(-c2sc3cc(OC)ccc3c2C(=O)c2ccc(C#N)cc2)cc1` [LY320135, [6-methoxy-2-(4-methoxyphenyl)benzo[b]thien-3-yl][4-cyanophenyl]methanone], for which, in the experiment on PC12 cells (10 μM LY320135), the “interaction with the inhibition produced by 100 μM clonidine” value is on record as “counteracted”. Besides, the “evoked [^3H]noradrenaline release (% of evoked release in the respective control experiments)” value with PC12 cells (10 μM LY320135 together with 10 μM 1-oleoyl-LPA, n=6) was 198.8%±39.9%. In the experiment with PC12 cells, the “effect on veratridine-evoked [^3H]noradrenaline release, given alone” value was “did not affect”.
Regarding `COc1nc(C)nc(Cl)c1N=C1NCCN1` [Moxonidine, moxonidine], the activity at 100 µM in the experiment with PC12 cells (Rattus norvegicus) came to 81.6 ± 5.2%. For the same compound, in the experiment with PC12 cells (up to a concentration of 1000 μM, 3 μM rauwolscine present), the “effect on veratridine-induced [^3H]noradrenaline release” value was “failed to modify”. At h(edg2) receptor, the “agonist character at the edg2-receptor” value is on record as “full agonists” and the “effect on [^35S]GTPγS-binding” value was “provoke an increase”.
On to `NC[C@H](O)c1ccc(O)c(O)c1` [Noradrenaline, noradrenaline base], for which the activity at 100 µM with PC12 cells (Rattus norvegicus) stood at 93 ± 11.5%. The “effect on veratridine-induced … (in words)” value in the experiment on PC12 cells (setting [1]) is recorded as “failed to modify”.
`COC(=O)[C@H]1[C@H]2C[C@H]3c4[nH]c5ccccc5c4CCN3C[C@H]2CC[C@@H]1O` [Rauwolscine, Rauwolscine hydrochloride]: in the experiment with PC12 cells (3 μM rauwolscine versus absence of rauwolscine), the “effect on the concentration-response curve of clonidine” value (“effect … of clonidine” for short) is “did not substantially differ”. Moreover, in the experiment with PC12 cells (30 μM rauwolscine), the “effect … of clonidine” value is listed as “shifted to the right” and the “interaction with the inhibitory effect of 10 μM 1-oleoyl-LPA” value is reported as “counteracted”. Also, in the experiment with PC12 cells (rauwolscine 3 μM alone, n=6), the “effect on veratridine-induced [^3H]noradrenaline release, given alone” value was “did not significantly modify”.
For the compound `CCCCCCCCCCCCC/C=C/[C@@H](O)[C@@H](N)COP(=O)(O)O` [S1P, sphingosine-1-phosphate], in the experiment with PC12 cells (10 μM S1P, n=6), the “evoked [^3H]noradrenaline release (% of veratridine-evoked release in the respective control experiments)” value is given as 101.7%±31.3%.
`Cc1c(C(=O)NN2CCCCC2)nn(-c2ccc(Cl)cc2Cl)c1-c1ccc(Cl)cc1` [SR141716A, N-[piperidin-1-yl]-5-[4-chlorophenyl]-1-[2,4-dichlorophenyl]-4-methyl-1H-pyrazole-3-carboxamide]: in the experiment on PC12 cells (1 μM SR141716A), the “interaction with the inhibition produced by 100 μM clonidine” value was “counteracted” and the “interaction with the inhibitory effect of 10 μM 1-oleoyl-LPA” value is given as “counteracted”. In addition, in the experiment on PC12 cells (1 μM SR141716A + 3 μM rauwolscine), the “interaction with the inhibitory effect of 0.3 μM CP55,940” value is listed as “antagonized”. Moreover, in the experiment on PC12 cells (10 μM SR141716A), the “effect … of clonidine” value was “shifted to the right”. The “effect on veratridine-evoked [^3H]noradrenaline release, given alone” value in the experiment with PC12 cells is recorded as “did not affect”.
On to `CS(=O)(=O)O.Cc1c(C(=O)c2cccc3ccccc23)c2cccc3c2n1[C@H](CN1CCOCC1)CO3` [WIN55,212-2, R(+)-[2,3-dihydro-5-methyl-3-[(morpholinyl)methyl]pyrrolo[1,2,3-de]-1,4-benzoxazin-yl)(1-naphthalenyl)methanone mesylate], for which the “effect on veratridine-induced [^3H]noradrenaline release (concentration-response)” value in the experiment on PC12 cells is “concentration-dependently inhibited”.
For the compound `Cc1c(C(=O)c2cccc3ccccc23)c2cccc3c2n1[C@@H](CN1CCOCC1)CO3` [WIN55,212-3], in the experiment on PC12 cells (setting [1]), the “effect on veratridine-induced … (in words)” value is recorded as “did not”.
On to `COc1cc2c(c(OC)c1OC)-c1ccc(OC)c(=O)cc1[C@@H](NC(C)=O)CC2` [colchicine], for which, in the experiment on PC12 cells (Rattus norvegicus, PC-12, read-out: inhibition of veratridine (1 mM)-evoked tritium overflow), the inhibition at 50 µM came to 56%.
As to “[(−)-cis-3-[2-hydroxy-4-(1,1-dimethylheptyl)phenyl]-trans-4-(3-hydroxypropyl)-cyclohexane [CP55,940]”, the figures for the “effect on evoked tritium overflow” value in the experiment on PC12 cells (0.3 μM CP55,940), in the experiment with PC12 cells (1 μM CP55,940) and in the experiment on PC12 cells (10 μM CP55,940) were “significantly inhibited”, “no inhibition” and “facilitation”, respectively.
Turning to lysophospatidic acid [LPA], the “effect on [^35S]GTPγS-binding” value at h(edg2) receptor is “provoke an increase”.

For the origin of these results see patent publication US20050232860A1, “Use of edg-receptor agonists for the treatment of hypertension” (priority 2001, published 2005).
